Results published in patent US20240261333A1, “NOVEL TARGETS FOR ENHANCING ANTI-TUMOR IMMUNITY” (THE BROAD INSTITUTE, INC., priority 2021, published 2024).

Key:
[1] = system: CCLF_PANC_0014_T primary patient-derived pancreatic adenocarcinoma; test: T cell cytotoxicity assay, primary patient-derived pancreatic adenocarcinoma against HER2 CAR T cells; type: cell-based, human; conditions: CCLF_PANC_0014_T treated with small molecule inhibitor
Experimental: (§1) Expanded T cells were thawed and maintained in culture media for 8-10 h before incubation with cancer cells. Cancer cells were seeded in 96-well plates and allowed to attach for 3-4 h before T cells were added at the appropriate effector to target cell (E:T) ratio. Paired controls with no T cells added were included for each condition. After 18 h, cancer cells were washed twice with PBS to remove T cells, passaged, and cultured for 2 days. Primary patient-derived cell models were not passaged after T cell co-culture. Viability was measured using CellTiter-Glo (Promega G7571). For each E:T ratio, percent survival was calculated as viability of the cells incubated with T cells divided by viability of the paired control that was not incubated with T cells. For example, CD274-overexpressing melanoma cells that were co-cultured with ESO T cells were compared to CD274-overexpressing melanoma cells that were cultured without T cells in parallel. As an alternative cytotoxicity assay, A375 cells stably expressing Gaussia luciferase were co-cultured with ESO T cells. At each time point, 10% of cell culture media was used for the Gaussia luciferase assay (Targeting Systems GAR-2B) to directly measure cytotoxicity. […]

[2] = target: Golgi Class I mannosidases IA, IB and IC; conditions: cited from earlier work
[3] = system: ESO T cells co-cultured with A375 cells; test: IFNγ ELISA in culture media of the T cell cytotoxicity assay; type: cell-based, human; conditions: B3GNT2-overexpressing A375 pretreated with inhibitor, E:T ratio of 3; kifunensine having a stronger effect
Experimental: Expanded T cells were thawed and maintained in culture media for 8-10 h before incubation with cancer cells. Cancer cells were seeded in 96-well plates and allowed to attach for 3-4 h before T cells were added at the appropriate effector to target cell (E:T) ratio. Paired controls with no T cells added were included for each condition. After 18 h, cancer cells were washed twice with PBS to remove T cells, passaged, and cultured for 2 days. Primary patient-derived cell models were not passaged after T cell co-culture. Viability was measured using CellTiter-Glo (Promega G7571). For each E:T ratio, percent survival was calculated as viability of the cells incubated with T cells divided by viability of the paired control that was not incubated with T cells. […]
To challenge cells with cytokines, cells were incubated with Interferon-γ (IFNγ; Cell Signaling Technology 80385S), FasL (AdipoGen AG-40B-0130-3010), TRAIL (R&D Systems 375-TL-010), or TNF-α (AdipoGen AG-40B-0019-3010) for 24 h. […] Cell viability was measured using CellTiter-Glo (Promega G7571) and protein was harvested for Western blots. […] IFNγ in the cell culture media of the T cell cytotoxic assay was quantified using an ELISA kit (Thermo Fisher Scientific KHC4021). […]

[4] = system: A375 cells overexpressing B3GNT2; test: Binding of recombinant T cell proteins to A375 cells, flow cytometry; type: cell-based, human
Experimental: (§2) For glycosylation inhibition, cells were treated with 20 μg/mL Kifunensine (Cayman Chemical 10009437) or 2 mM Benzyl 2-acetamido-2-deoxy-alpha-D-galactopyranoside (BAG; Millipore Sigma B4894-100MG) for 48 h to inhibit N- and O-glycosylation respectively unless otherwise indicated. For MCL1 inhibition, cells were treated with 1-10 μM of S63845 (Selleck Chemicals S8383) or AZD5991 (Selleck Chemicals S8643) for 4 h before incubation with T cells. Both glycosylation and MCL1 inhibitors were maintained at indicated concentrations during co-culture with T cells.
Per condition, 5×10^5 cells were pelleted at 200×g for 5 min and washed once with PBS. Cell were fixed in 4% Formaldehyde in PBS at 4° C. for 10 mins. Cells were washed twice with PBS and resuspended in PBS with 25 μg/mL recombinant Fc chimera proteins [PVRIG (R&D Systems 9365-PV-050), CD226 (R&D Systems 666-DN-050), NKG2D (R&D 1299-NK-050), TREML2 (R&D Systems 3259-TL-050), CD2 (R&D Systems 1856-CD-050), CD96 (R&D Systems 9360-CD-050), TIGIT (BPS Bioscience 71186), CD27 (BPS Bioscience 71176), or 4-1BB (TNFRSF9; Sino Bio 10041-H03H)], 0.1 μg/mL HLA-A2:NY-ESO-1 Fab (Stewart-Jones et al., 2009), 5 μg/mL Fas antibody (Millipore Sigma 05-201), 25 μg/mL TNFRSF10B antibody (Novus Biologicals NB100-56618, 1:200), or Dylight 649 labeled Tomato Lectin (Vector Laboratories DL-1178, 1:100). Cells were incubated at 4° C. for 1 h. Cells were washed twice with PBS and resuspended in PBS with the appropriate secondary antibody [IgG Fc PE (Thermo Fisher Scientific 12-4998-82, 1:50), His Tag Alexa Fluor 647 (Thermo Fisher Scientific MA121315A647), mouse Alexa Fluor 568 (Thermo Fisher Scientific A-11031), or rabbit Alexa Fluor 647 (Thermo Fisher Scientific A-21244)]. Cells stained with Tomato Lectin were not incubated with additional secondary antibodies. […] For each sample, 10,000 cells were analyzed on a CytoFLEX Flow Cytometer (Beckman Coulter) and quantified with FlowJo (FlowJo). For each experiment, median fluorescence values for 3 biological replicates were compared to determine statistical significance.

[5] = system: A375 cells overexpressing B3GNT2; test: Intra- and extra-cellular poly-LacNAc by tomato lectin staining, flow cytometry; type: cell-based, human; conditions: A375 overexpressing B3GNT2, pretreated with different concentrations of inhibitor
Experimental: as §2
Per condition, 5×10^5 cells were pelleted at 200×g for 5 min and washed once with PBS. Cell were fixed in 4% Formaldehyde in PBS at 4° C. for 10 mins. […] For each sample, 10,000 cells were analyzed on a CytoFLEX Flow Cytometer (Beckman Coulter) and quantified with FlowJo (FlowJo). For each experiment, median fluorescence values for 3 biological replicates were compared to determine statistical significance.

[6] = system: SW1417 (HER2+) colorectal adenocarcinoma cells; test: T cell cytotoxicity assay, SW1417 against HER2 CAR T cells; type: cell-based, human; conditions: SW1417 treated with small molecule inhibitor
Experimental: as §1

SMILES: O=C1N[C@@H]2[C@@H](O)[C@@H](O)[C@H](O)[C@@H](CO)N2C1=O [kifunensine]
- Cell survival against T cell cytotoxicity, primary patient-derived pancreatic adenocarcinoma model [1]: reduced survival
- Ki [2]: 23 nM
- T cell IFNγ secretion [3]: increased T cell IFNγ secretion
- Binding of recombinant T cell proteins to A375 cells ([4]; B3GNT2-overexpressing A375 treated with inhibitor, CD2, 4-1BB, TREML2, NKG2D): rescued the reduction in T cell protein binding
- HLA-A2:NY-ESO-1 antibody binding to A375 cells ([4]; B3GNT2-overexpressing A375 treated with kifunensine): further reduced binding
- poly-LacNAc measured by tomato lectin staining [5]: reduced poly-LacNAc added by B3GNT2 in a dosage-dependent manner
- Cell survival against T cell cytotoxicity, SW1417 [6]: reduced survival
